Bounds are passed on as bounds.

Results on ten compounds are retold here after US20230271959A1, “HETEROCYCLIC COMPOUND AS BCL-2 INHIBITOR” (Beijing Innocare Pharma Tech Co., Ltd., priority 2020, published 2023).

In series [1] the target is T1, human recombinant Bcl-2 protein (Homo sapiens, UniProt P10415).
T1 construct: purchased Beijing Yigiao Shenzhou Biotechnology Co., Ltd. 10195-HOSE
Put plainly: Fluorescence polarization test for inhibition of BCL-2 binding to FITC-BIM. The conditions noted are these: 5 nM BCL-2, 5 nM FITC-BIM, read-out: FP BCL-2 IC50. The method in brief:
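FP competition: compound preincubated 15 min with recombinant human Bcl-2 (diluted to 5 nM), then FITC-BIM (diluted to 5 nM) added for 30 min at room temperature in PBS pH 7.4 with 1 mM DTT. Polarization read at 480/535 nm; IC50 from 8-point 4-fold series fitted by four-parameter equation.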

Series [2] deals with T2, human recombinant Bcl-XL protein (Homo sapiens, UniProt Q07817).
T2 construct: purchased Beijing Yiqiao Shenzhou Biotechnology Co., Ltd. 10455-H0SE
The series is described as follows: Fluorescence polarization test for inhibition of BCL-XL binding to FITC-BIM. The conditions noted are these: 10 nM BCL-XL, 10 nM FITC-BIM, read-out: FP BCL-XL IC50. The method in brief:
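Human recombinant Bcl-XL (10 nM diluted stock) preincubated with compound 15 min at RT in PBS pH 7.4, 1 mM DTT, then FITC-BIM peptide (10 nM diluted stock) added for 30 min in dark. FP read at ex 480/em 535 nm; no-protein wells = 100% inhibition; IC50 from 8-point 4-fold dilution curve fit.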
In general terms: In fluorescence polarisation assays a small probe gives low polarisation when free and higher when bound to something large.

For series [3], the system named is RS4;11 cells (acute lymphoblastic leukemia cells). The series is described as follows: RS4;11 cell proliferation, CellTilter-Glo luminescence cell viability assay. Format: cell-based. The conditions noted are these: Homo sapiens, RS4-11; CTG readout after 48 hours. The method in brief: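 RS4;11 cells plated overnight were exposed for 48 h at 37 °C, 5% CO2 to an 8-point, 4-fold compound dilution series; the vehicle control contained 0.2% DMSO. Viability was read by CellTiter-Glo luminescence. Percent inhibition was referenced to no-cell and DMSO controls, and IC50 came from a four-parameter sigmoidal fit.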

For series [4], the system named is patients with relapsed or refractory lymphoid malignancies. The following applies: cited from earlier work.
The subject of series [5] is chronic lymphocytic leukemia (CLL) patients. The following applies: clinical; cited from earlier work.
Series [6] relates to relapsed/refractory CLL, MCL, MM. The conditions noted are these: clinical; cited from earlier work.

T1 sequence (P10415 whole entry): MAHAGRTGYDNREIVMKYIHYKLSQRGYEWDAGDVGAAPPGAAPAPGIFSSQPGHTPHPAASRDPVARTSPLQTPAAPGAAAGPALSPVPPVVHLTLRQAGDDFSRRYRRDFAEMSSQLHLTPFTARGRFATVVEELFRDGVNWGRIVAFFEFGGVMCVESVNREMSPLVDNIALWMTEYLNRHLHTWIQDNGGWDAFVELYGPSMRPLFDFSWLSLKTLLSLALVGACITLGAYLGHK
T2 sequence (Q07817 whole entry): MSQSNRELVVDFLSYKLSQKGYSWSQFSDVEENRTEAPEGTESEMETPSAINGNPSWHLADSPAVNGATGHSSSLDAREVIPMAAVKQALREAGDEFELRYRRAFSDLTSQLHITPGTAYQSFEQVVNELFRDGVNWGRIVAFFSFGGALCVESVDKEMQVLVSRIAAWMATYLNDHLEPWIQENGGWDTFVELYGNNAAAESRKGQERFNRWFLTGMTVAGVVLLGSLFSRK

The IC50 is the midpoint of a concentration-inhibition curve. On to `C[C@H]1CN(c2ccc(C(=O)NS(=O)(=O)c3ccc(NC[C@@H]4COCCO4)c([N+](=O)[O-])c3)c(Oc3cnc4[nH]ccc4c3)c2)CCN1CC1=C(c2ccc(Cl)cc2)CCC(C)(C)C1` [Example 53, N-((4-((((R)-1,4-dioxan-2-yl)methyl)amino)-3-nitrophenyl)sulfonyl)-2-((1H-pyrrolo[2,3-b]pyridin-5-yl)oxy)-4-((S)-4-((4′-chloro-4,4-dimethyl-3,4,5,6-tetrahydro-[1,1′-biphenyl]-2-yl)methyl)-3-methylpiperazin-1-yl)benzamide], for which the IC50 is over 100 nM in series [1], over 1000 nM in series [2] and over 500 nM in series [3].
For `C[C@@H]1CN(c2ccc(C(=O)NS(=O)(=O)c3ccc(NC[C@@H]4COCCO4)c([N+](=O)[O-])c3)c(Oc3cnc4[nH]ccc4c3)c2)CCN1CC1=C(c2ccc(Cl)cc2)CCC(C)(C)C1` [Example 54, N-((4-((((R)-1,4-dioxan-2-yl)methyl)amino)-3-nitrophenyl)sulfonyl)-2-((1H-pyrrolo[2,3-b]pyridin-5-yl)oxy)-4-((R)-4-((4′-chloro-4,4-dimethyl-3,4,5,6-tetrahydro-[1,1′-biphenyl]-2-yl)methyl)-3-methylpiperazin-1-yl)benzamide] the same measures were 11 nM, over 1000 nM and 25 nM.
In the same order, the values of `C[C@@H]1CN(c2ccc(C(=O)NS(=O)(=O)c3cc(F)c(NC[C@@H]4COCCO4)c([N+](=O)[O-])c3)c(Oc3cnc4[nH]ccc4c3)c2)CCN1CC1=C(c2ccc(Cl)cc2)CC(C)(C)CC1` [Example 55, N-((4-((((R)-1,4-dioxan-2-yl)methyl)amino)-3-fluoro-5-nitrophenyl)sulfonyl)-2-((1H-pyrrolo[2,3-b]pyridin-5-yl)oxy)-4-((R)-4-((4′-chloro-5,5-dimethyl-3,4,5,6-tetrahydro-[1,1′-biphenyl]-2-yl)methyl)-3-methylpiperazin-1-yl)benzamide] are 2.3 nM, over 1000 nM and 5.7 nM.
Turning to `C[C@H]1CN(c2ccc(C(=O)NS(=O)(=O)c3cc(F)c(NC[C@@H]4COCCO4)c([N+](=O)[O-])c3)c(Oc3cnc4[nH]ccc4c3)c2)CCN1CC1=C(c2ccc(Cl)cc2)CC(C)(C)CC1` [Example 56, N-((4-((((R)-1,4-dioxan-2-yl)methyl)amino)-3-fluoro-5-nitrophenyl)sulfonyl)-2-((1H-pyrrolo[2,3-b]pyridin-5-yl)oxy)-4-((S)-4-((4′-chloro-5,5-dimethyl-3,4,5,6-tetrahydro-[1,1′-biphenyl]-2-yl)methyl)-3-methylpiperazin-1-yl) benzamide], the IC50 in series [1] was 82 nM; in series [2], over 1000 nM; in series [3], 224 nM.
For `CC1(C)CCC(CN2CCN(c3ccc(C(=O)NS(=O)(=O)c4ccc(NCC5CCOCC5)c([N+](=O)[O-])c4)c(Oc4cnc5[nH]ccc5c4)c3)[C@@H]3CCCC[C@H]32)=C(c2ccc(Cl)cc2)C1` [Example 57] the same measures were over 500 nM, over 1000 nM and over 1000 nM.
For `C[C@@H]1CN(c2ccc(C(=O)NS(=O)(=O)c3ccc(NCC4CCOCC4)c([N+](=O)[O-])c3)c(Oc3cnc4[nH]ccc4c3)c2)[C@H](C)CN1CC1=C(c2ccc(Cl)cc2)CC(C)(C)CC1` [Example 58, 2-((1H-Pyrrolo[2,3-b]pyridin-5-yl)oxy)-4-((2R,5R)-4-((4′-chloro-5,5-dimethyl-3,4,5,6-tetrahydro-[1,1′-biphenyl]-2-yl)methyl)-2,5-dimethylpiperazin-1-yl)-N-((3-nitro-4-(((tetrahydro-2H-pyran-4-yl)methyl)amino)phenyl)sulfonyl)benzamide] the same measures were 29.9 nM, over 1000 nM and 142 nM.
For `C[C@@H]1CN(c2ccc(C(=O)NS(=O)(=O)c3ccc(NC[C@H]4COCCO4)c([N+](=O)[O-])c3)c(Oc3cnc4[nH]ccc4c3)c2)C[C@@H](C)N1CC1=C(c2ccc(Cl)cc2)CC(C)(C)CC1` [Example 59, N-((4-((((S)-1,4-Dioxan-2-yl)menthyl)amino)-3-nitrophenyl)sulfonyl)-2-((1H-pyrrolo[2,3-b]pyridin-5-yl)oxy)-4-((3R,5R)-4-((4′-chloro-5,5-dimethyl-3,4,5,6-tetrahydro-[1,1′-biphenyl]-2-yl)methyl)-3,5-dimethylpiperazin-1-yl)benzamide] the same measures were 73.2 nM, over 1000 nM and 193 nM.
In the case of `CC1(C)CCC(c2ccc(Cl)cc2)=C(CN2CCN(c3ccc(C(=O)NS(=O)(=O)c4ccc(N[C@H](CCN5CCOCC5)CSc5ccccc5)c(S(=O)(=O)C(F)(F)F)c4)cc3)CC2)C1` [Navitoclax], the response in series [4] (Phase I dose escalation) is on record as 50%. Moreover, the targeted toxicity entry in series [4] (thrombocytopenia and severe anemia) is “very strong targeted toxicity related to BCL-XL”.
For `COC1=CC(c2cc3ccccc3[nH]2)=N/C1=C\c1[nH]c(C)cc1C` [Obatoclax], the neurotoxicity entry in series [5] was “strong neurotoxicity”.
Turning to `CC1(C)CCC(CN2CCN(c3ccc(C(=O)NS(=O)(=O)c4ccc(NCC5CCOCC5)c([N+](=O)[O-])c4)c(Oc4cnc5[nH]ccc5c4)c3)CC2)=C(c2ccc(Cl)cc2)C1` [Venetoclax, reference compound], in series [6], the toxic side effects entry is “toxic side effects such as leukopenia and thrombocytopenia, anemia, diarrhea, dizziness, fatigue, susceptibility to infection”. The compound also had a concentration for half-maximal inhibition (IC50) in series [3] of 5.5 nM.
